The source of these data is patent publication US8415156B2, “Recombinant laminin-521” (Biolamina AB, priority 2010, dated 2013).

Series [1] has as its system hES cell lines HS181 and H1. In words: Karyotyping. The series is classed as cell-based, human. The settings on record: HS181 12 passages and H1 10 passages in O3; H1 7 passages in TeSR2. The protocol: Karyotyping of the cell lines was carried out using standard Q-banding techniques. Samples of cells were treated with colcemid KaryoMAX (0.1 μg/ml; Gibco Invitrogen Corporation) for up to 4 hours, followed by dissociation with Trypsin/EDTA solution (Gibco Invitrogen Corporation). The cells were pelleted via centrifugation and re-suspended in pre-warmed 0.0375 M KCl hypotonic solution and incubated for 10 minutes. Following centrifugation, the cells were resuspended in fixative (3:1 methanol:acetic acid). Metaphase spreads were prepared on glass microscope slides and G-banded by brief exposure to trypsin and stained with 4:1 Gurr's/Leishmann's stain (Sigma-Aldrich Co.). A minimum of 10 metaphase spreads were analyzed and additional 20 were counted.

Series [2] relates to Oct4 and Nanog. In words: Real-time quantitative RT-PCR of pluripotency markers (Example 1). The series is classed as cell-based, human. The settings on record: after several single cell dissociation passages. The protocol: Total RNA was isolated and cDNA was synthesized as described in Rodin et al., Nature Biotechnol., vol. 28, pp. 611-615 (2010). Real-time quantitative RT-PCR Taqman assays were performed using the Applied Biosystems 7300 Real-Time PCR System. All reactions were done in quadruplicate with predeveloped gene expression assay mix (Applied Biosystems) containing primers and a probe for the mRNA of interest. Additional reactions for each experiment included predeveloped gene expression assay mix for GAPDH, used to normalize the RNA input. All data were analyzed with 7300 System SDS Software version 1.4.

Series [3] deals with human embryonic stem cell. In words: Survival after dissociation into single cell suspension (description). To be noted: O3 medium; 30 Kcells/cm^2; precoated dishes. In kind it is cell-based. The source says: In other aspects, the present disclosure provides a new material, isolated laminin-521, which permits human embryonic stem cell survival after dissociation into single cell suspension. The stem cells were dissociated into single cell suspension by Trypsin-EDTA treatment, pelleted by centrifugation, resuspended into O3 medium, filtered through a 40 μm sieve, and plated at a density of 30 Kcells/cm^2 on cell culture dishes precoated by either isolated laminin-521, laminin-511, or Matrigel. After one day in culture, the cells plated on Matrigel died, as is known in the art.

Series [4] concerns human iPS ChiPSW and CutB1.2 cells. In words: Long-term self-renewal of human iPS cells on LN-521. In kind it is cell-based. The settings on record: mTeSR1.
In series [5] the test system is Oct4, Nanog, SSEA4; PAX6, SOX17, SOX7. In words: Expression of pluripotency and differentiation markers (Example 2). The series is classed as cell-based, human. To be noted: compared with Matrigel passed as small clumps. The method, then:
For immunofluorescence studies, ES cells were cultured and fixed in 8-well slide chambers (BD Biosciences) or 96-well plate wells by 4% paraformaldehyde, permeabilized by 0.1% Triton-X and blocked by 10% bovine fetal serum (GIBCO Invitrogen Corporation) in phosphate-saline buffer (PBS) containing 0.1% Tween-20 (Sigma-Aldrich, St. Louis, www.sigmaaldrich.com) for one hour. Incubation with primary antibody was performed for 1.5 hours at room temperature. Incubation with secondary antibody and 4,6-diamidino-2-phenylindole (DAPI, Molecular Probes) was performed for 40 minutes. Between incubations, the specimens were washed with 0.1% Tween-20 in PBS buffer three to five times. Specimens were preserved in a fluorescence mounting medium (Dako, Glostrup, Denmark, http://www.dako.com), and observed under a fluorescence microscope (Leica, Heerbrugg, Switzerland, http://www.leica.com).
Total RNA was isolated using Absolutely RNA Microprep Kit (Stratagene, La Jolla Calif., www.stratagene.com) according to the manufacturer's instructions. cDNA was synthesized using 0.2 μg of total RNA in 20 μl reaction mixture, containing oligo(dT)12-18 primers and Superscript II reverse transcriptase (GIBCO Invitrogen Corporation), according to the manufacturer's instructions. […] All data was analyzed with 7300 System SDS Software v 1.4. […]

Series [6] concerns the target Integrin α6β1 (Homo sapiens, UniProt P05556+P23229). The settings on record: cited from earlier work.
For series [7], the system named is hES cells. In words: Embryoid body formation. In kind it is cell-based, human. The settings on record: same three cultures as teratoma test. The method, then:
ES cells from LN-521 coated cell culture dishes were exposed to TrypLE™ Select for one minute at 37° C., 5% CO2, washes two times with a medium, broken into large pieces and cultured in suspension in low adhesion plates. The medium used for this was Knockout DMEM (GIBCO Invitrogen Corporation) supplemented with 2 mM L-glutamine, 20% fetal calf serum (GIBCO Invitrogen Corporation), 0.1 mM β-mercaptoethanol (GIBCO Invitrogen Corporation) and 1% non-essential amino acids (GIBCO Invitrogen Corporation). After 1-2 weeks in suspension, the embryoid bodies were transferred onto gelatin coated tissue cell culture 96-well plates (Sarstedt), cultured for 1-2 weeks, then fixed, stained with antibodies against markers of all three embryonic germ line layers (smooth muscle actin, MAP-2 and α-fetoprotein) and analyzed as described above for immunofluorescence.

Integrin α6β1, sequence (P23229 24-1130): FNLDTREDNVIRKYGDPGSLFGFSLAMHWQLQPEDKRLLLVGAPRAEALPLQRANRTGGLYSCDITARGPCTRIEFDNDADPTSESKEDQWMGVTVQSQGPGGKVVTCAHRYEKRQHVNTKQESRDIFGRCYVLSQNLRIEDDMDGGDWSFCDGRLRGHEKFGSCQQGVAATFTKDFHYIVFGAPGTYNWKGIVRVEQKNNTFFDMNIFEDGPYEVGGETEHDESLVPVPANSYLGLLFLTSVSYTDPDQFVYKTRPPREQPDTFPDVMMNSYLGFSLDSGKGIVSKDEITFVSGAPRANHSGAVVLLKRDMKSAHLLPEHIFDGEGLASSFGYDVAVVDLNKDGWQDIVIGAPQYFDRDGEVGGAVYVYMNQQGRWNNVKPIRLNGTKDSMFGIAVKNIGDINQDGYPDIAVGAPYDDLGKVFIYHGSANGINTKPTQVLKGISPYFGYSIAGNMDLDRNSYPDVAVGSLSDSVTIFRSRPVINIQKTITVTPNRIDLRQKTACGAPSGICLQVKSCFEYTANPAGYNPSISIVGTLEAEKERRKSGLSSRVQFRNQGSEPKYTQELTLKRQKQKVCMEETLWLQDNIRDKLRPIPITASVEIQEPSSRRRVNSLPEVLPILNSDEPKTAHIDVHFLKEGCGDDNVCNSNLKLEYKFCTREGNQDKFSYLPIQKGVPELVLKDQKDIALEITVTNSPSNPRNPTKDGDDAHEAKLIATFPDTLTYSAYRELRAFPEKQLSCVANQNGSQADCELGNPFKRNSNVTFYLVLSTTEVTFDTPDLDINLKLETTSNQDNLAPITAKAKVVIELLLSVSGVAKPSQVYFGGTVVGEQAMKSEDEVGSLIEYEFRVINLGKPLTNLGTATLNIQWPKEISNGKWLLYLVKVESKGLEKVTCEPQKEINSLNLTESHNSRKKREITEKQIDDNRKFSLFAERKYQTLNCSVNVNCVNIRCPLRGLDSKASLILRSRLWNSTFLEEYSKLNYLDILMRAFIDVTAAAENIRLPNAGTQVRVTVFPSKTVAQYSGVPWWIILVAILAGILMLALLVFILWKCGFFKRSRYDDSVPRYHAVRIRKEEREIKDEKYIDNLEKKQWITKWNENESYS
Integrin α6β1, sequence (P05556 21-798): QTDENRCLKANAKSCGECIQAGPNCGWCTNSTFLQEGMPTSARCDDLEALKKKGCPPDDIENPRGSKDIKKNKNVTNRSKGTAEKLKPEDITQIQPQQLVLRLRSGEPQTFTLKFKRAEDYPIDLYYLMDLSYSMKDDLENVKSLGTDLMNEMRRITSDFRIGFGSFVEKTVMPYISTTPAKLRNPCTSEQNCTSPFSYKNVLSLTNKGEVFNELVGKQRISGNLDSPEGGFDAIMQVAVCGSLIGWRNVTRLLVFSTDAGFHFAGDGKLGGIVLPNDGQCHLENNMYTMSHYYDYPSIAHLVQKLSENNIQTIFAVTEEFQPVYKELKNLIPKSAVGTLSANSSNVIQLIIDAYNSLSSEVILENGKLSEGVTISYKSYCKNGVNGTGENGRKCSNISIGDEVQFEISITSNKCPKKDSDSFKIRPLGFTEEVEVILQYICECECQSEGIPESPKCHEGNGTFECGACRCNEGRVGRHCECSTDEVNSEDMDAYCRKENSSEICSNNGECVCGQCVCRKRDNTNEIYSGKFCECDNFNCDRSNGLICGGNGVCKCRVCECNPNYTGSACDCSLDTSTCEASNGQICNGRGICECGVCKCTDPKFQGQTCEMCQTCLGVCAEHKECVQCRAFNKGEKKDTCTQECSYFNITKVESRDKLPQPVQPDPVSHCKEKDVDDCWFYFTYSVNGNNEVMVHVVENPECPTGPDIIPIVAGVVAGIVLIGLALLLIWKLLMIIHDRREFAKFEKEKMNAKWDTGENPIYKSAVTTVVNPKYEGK

For “LN-521: protein formed by joining α5, β2 and γ1 chains together; human recombinant, produced in HEK293 cells”, in series [1], the karyotype entry was “normal”. Besides, the “number of mRNA transcripts of Oct4 and Nanog compared with Matrigel” value in series [2] is given as “higher numbers of transcripts”. The “survival of hES cells plated from single cell suspension after one day in culture” value in series [3] was “survived and started to proliferate”. In addition, in series [4], the “passages cultured, ChiPSW cells” value was 3 passages and the “passages cultured, CutB1.2 iPS cells” value is recorded as 5 passages. Further, in series [5], the “expression levels of pluripotency markers Oct4, Nanog, and SSEA4” value was “stable expression levels”. For the same substance, the “binding affinity of integrin α6β1” value in series [6] is recorded as “higher than that for LN-111”. The “differentiation in vitro: embryoid bodies expressing markers of mesoderm, ectoderm and endoderm” value in series [7] is on record as “retained the competence to form embryoid bodies”.
